Paper PMC10359276, “Involvement of skin TRPV3 in temperature detection regulated by TMEM79 in mice” (Nature Communications, 2023)

Biological target: TRPV3 (mTRPV3) (Mus musculus, UniProt Q8K424)
Assay: cell-based

Sequence of TRPV3 (mTRPV3) (Q8K424 whole entry): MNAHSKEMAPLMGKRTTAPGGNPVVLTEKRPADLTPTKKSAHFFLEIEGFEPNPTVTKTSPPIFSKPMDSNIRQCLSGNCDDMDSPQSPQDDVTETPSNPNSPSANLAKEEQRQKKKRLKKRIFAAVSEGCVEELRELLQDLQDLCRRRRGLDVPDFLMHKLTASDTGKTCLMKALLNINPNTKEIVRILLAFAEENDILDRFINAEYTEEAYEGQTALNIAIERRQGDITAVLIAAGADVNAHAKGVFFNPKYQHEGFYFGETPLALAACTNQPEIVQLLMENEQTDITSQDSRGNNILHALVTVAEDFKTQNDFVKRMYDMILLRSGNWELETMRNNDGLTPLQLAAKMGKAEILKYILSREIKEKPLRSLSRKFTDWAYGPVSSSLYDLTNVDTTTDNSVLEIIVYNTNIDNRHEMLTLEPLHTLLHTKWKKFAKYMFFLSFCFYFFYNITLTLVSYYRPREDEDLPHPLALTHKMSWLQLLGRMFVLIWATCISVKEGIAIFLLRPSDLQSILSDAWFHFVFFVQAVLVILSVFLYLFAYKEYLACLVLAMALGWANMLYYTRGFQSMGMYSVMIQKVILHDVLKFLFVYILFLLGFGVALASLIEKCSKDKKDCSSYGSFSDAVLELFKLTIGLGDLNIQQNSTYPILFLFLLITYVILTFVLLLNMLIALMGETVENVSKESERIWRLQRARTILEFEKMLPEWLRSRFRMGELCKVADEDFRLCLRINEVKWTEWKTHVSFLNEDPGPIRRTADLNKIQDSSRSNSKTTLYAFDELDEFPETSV

- EC50: 57.4 ± 3.2 µM
SMILES: NCCOB(c1ccccc1)c1ccccc1 [2-APB]
